From US8128963B2, “Methods for treating ischemic disorders using carbon monoxide” (The Trustees of Columbia University in the City Of New York, priority 1999, dated 2012)

What was measured:
[1] = system: murine model of focal cerebral ischemia; assay: Murine focal cerebral ischemia, carbon monoxide inhalation and heme oxygenase blockade; type: in vivo, mouse; conditions: for infarct volume / mortality: vs controls
Description: FIGS. 23A and 23B. FIG. 23A. The effect of carbon monoxide inhalation on cerebral infarct volumes. Mice were placed in bell jars, in which they were exposed to 0.1% CO for 12 hours. After this treatment, they were removed from the bell jars and subjected to intraluminal occlusion of the middle cerebral artery. At 24 hours, animals were sacrificed and infarct volumes measured by triphenyltetrazolium chloride (TTC) staining as shown in FIG. 25. Quantification of infarction volumes (mean±SEM) is expressed as the percent of infarction of the ipsilateral hemisphere.
Protoporphyrin preparation and administration. Tin protoporphyrin IX dichloride (20 mg, Porphyrin Products, Logan, Utah), zinc protoporphyrin IX (17 mg, Porphyrin Products, Logan, Utah), or biliverdin (18 mg, Porphyrin Products, Logan, Utah) was initially dissolved in dimethyl sulfoxide (2 mL). An aliquot of this solution (200 μL) was added to normal saline (9.8 mL) and this mixture was vortexed vigorously to yield a 2.7×10^−4 M solution of the protoporphyrin. The solution container was wrapped in aluminum foil to prevent photolysis of the protoporphyrin and stored at 4° C. until used.
Micro-osmotic pumps (#1003D, Alza Corp., Palo Alto, Calif.) were loaded with this protoporphyrin solution (91 μL/pump) and implanted subcutaneously in the anesthetized mouse via a 1 cm dorsal midline incision 24 h prior to the start of surgery. These pumps administer drug solution at a rate of 0.95±0.02. μL/h. At the time of surgery an additional dose of the protoporphyrin solution was administered (0.3 mL, i.v.) prior to insertion of the intralumenal occluding catheter. Each animal received the following total (injection+pump) drug amounts over the course of the study tin protoporphyrin (0.070 mg), zinc protoporphyrin (0.059 mg), or biliverdin (0.061 mg).

[2] = system: lung ischemia (lung preservation for transplantation); assay: Rat orthotopic left lung transplantation after 6 h preservation, donor CO pretreatment; type: in vivo
Description: Inbred male Lewis rats (250-300 gms) were used for all experiments according to a protocol approved by the Institutional Animal Care and Use Committee at Columbia University, in accordance with guidelines set forth by the American Academy for Accreditation of Laboratory Animal Care (AAALAC). Lung transplant experiments were performed in the following manner. Donor rats were given 500 units of heparin intravenously, and the pulmonary artery (PA) was flushed with a 30 mL volume of 4° C. preservation solution at a constant pressure of 20 mm Hg. When lungs are preserved in this manner, most of the infused flush solution comes out of a left atrial vent created in the lung donor, as well as out of the pulmonary veins following transection.
The left lung was then harvested, a cuff was placed on each vascular stump, a cylinder was inserted into the bronchus, and the lung was submerged for 6 hours in 4° C. preservation solution which was identical to the PA flush solution. Gender/strain/size matched rats were anesthetized, intubated, and ventilated with 100% O2 using a rodent ventilator (Harvard Apparatus, South Natick, Mass.). Orthotopic left lung transplantation was performed through a left thoracotomy using a rapid cuff technique for all anastomoses, with warm ischemic times maintained below 5 minutes. The hilar cross-clamp was released, re-establishing blood flow and ventilation to the transplanted lung. A snare was then passed around the right PA, and Millar catheters (2F; Millar Instruments, Houston, Tex.) were introduced into the main PA and the left atrium (LA). A Doppler flow probe (Transonics, Ithaca, N.Y.) was placed around the main PA.
Online hemodynamic monitoring was accomplished using MacLab and a Macintosh IIci computer. Measured hemodynamic parameters included LA and PA pressures (mm Hg), and PA flow (mL/min). Arterial oxygen tension (pO2, mm Hg) was measured during inspiration of 100% O2 using a model ABL-2 gas analyzer (Radiometer, Copenhagen, Denmark). PVRs were calculated as (mean PA pressure—LA pressure)/mean PA flow and expressed as mm Hg/mL/min. After baseline measurements, the native right PA was ligated and serial measurements taken every five minutes until the time of euthanasia at 30 minutes (or until recipient death).
At the indicated time before surgery (4,8, or 12 hours), rats were placed in a bell jar, and carbon monoxide was administered at various concentrations (0.01%, 0.03%, or 0.1%), with the remainder of the gas mixture consisting of room air. (The gas was passed through a jar of water prior to administration, in order to humidify it for animal comfort). At the indicated times following initiation of exposure, rats were anesthetized and lungs harvested as described above. These donor lungs were used in subsequent lung transplant experiments.

[3] = system: hypoxic human umbillical vein ECs; assay: vWF release from hypoxic HUVECs, NO/cGMP pathway; type: cell-based; conditions: hypoxia pO2<20 Torr 4 hours; SIN-1 0.1 mM, 8-Bromo-cGMP 10 nM
Description: (§1) Hypoxia or free radicals induce P-selectin (PS) translocation to the endothelial cell (EC) surface, where it participates in neutrophil (PMN) adhesion during reperfusion. To explore a mechanism whereby nitrovasodilators may attenuate postischemic leukosequestration, we tested whether stimulating the NO/cGMP pathway could attenuate surface PS expression in hypoxic human umbillical vein ECs. […] Under similar conditions, addition of the NO donor 3-morpholino sydnonimine (SIN-1, 0.1 mM) or the cGMP analog 8-Bromo-cGMP (cGMP, 10 nM) caused a reduction in vWF release; Control vWF, 11±0.4 mU/mL; SIN-1, 9.1±0.3 mU/mL; cGMP, 9.7±0.2 mU/mL; p<0.005 for both SIN-1 or cGMP vs Control.

hypoxic HUVECs = assay: Immunofluorescent adherence assay, HL60 binding to hypoxic HUVECs; type: cell-based, human
Description: as §1

P-selectin = assay: Surface P-selectin expression on hypoxic HUVECs (radiolabeled anti-PS antibody binding); type: cell-based, human
Description: as §1

Human umbilical vein ECs = assay: vWF release from hypoxic endothelial cells (ELISA); type: cell-based
Description: Endothelial cell culture and exposure of cells to H or H/R. Human umbilical vein ECs were prepared from umbilical cords and grown in culture by the method of Jaffe (16) as modified by Thornton (17). Experiments utilized confluent ECs (passages 1-4) grown in Medium 199 supplemented with fetal bovine serum (15%; Gemini, Calabasas, Calif.), human serum (5%; Gemini), endothelial growth supplement (Sigma, St. Louis, Mo.), heparin (90 μg/ml; Sigma) and antibiotics, as described (17). When ECs achieved confluence, experiments were performed by placing cultures in an environmental chamber (Coy Laboratory Products, Ann Arbor, Mich.) which provided a controlled temperature (37° C.) and atmosphere with the indicated amount of oxygen, carbon dioxide (5%) and the balance made up of nitrogen. Use of this chamber for cell culture experiments has been described previously (15,18). During exposure of ECs to hypoxia (for a maximum of 16 hours), the oxygen tension in the culture medium was 14-18 torr and there was no change in the medium pH. Reoxygenation was performed by placing ECs in an ambient atmosphere containing carbon dioxide (5%) at 37° C.
Measurement of Weibel-Palade body exocytosis: ECs were plated into 24 well plates, rinsed 3 times with Hank's balanced salt solution, and then exposed to hypoxia or to normoxia for the indicated durations. For experiments in which vWF was measured, cells were maintained in serum-free medium. All other EC experiments were performed in the EC growth medium described above. For measurement of vWF, 200 μL aliquots of culture supernatant was removed at the indicated times, and a commercially available ELISA (American Diagnostica, Greenwich, Conn.), based on a polyclonal goat anti-human vWF antibody, was performed on duplicate specimens, with a standard curve generated using purified human vWF antigen supplied by the same vendor. EC P-selectin expression was determined by measuring the specific binding of a murine monoclonal anti-human P-selectin antibody (WAPS 12.2 clone, Endogen, Cambridge, Mass.; this is an IgGl which recognizes a calcium sensitive epitope and blocks P-selectin dependent neutrophil adhesion. Antibody was radiolabelled with ^125I by the lactoperoxidase method (19) using Enzymobeads (Bio-Rad, Hercules, Calif.), stored at 4° C. and used within one week of labelling. Binding assays were performed on HUVECs plated on 96 well plates, in which fresh M199 with 0.1% bovine serum albumin (Sigma, St. Louis, Mo.) was added immediately prior to each experiment. Cells were placed in a humidified environment at 37° C., and exposed to normoxia or H (in the presence or absence of 50 μM probucol, as indicated, Sigma) for the indicated durations. Cell monolayers were fixed for 15 min. with 1% paraformaldehyde^10 (cells exposed to H were fixed while still within the hypoxic environment), visually inspected to ensure that the monolayers remained intact, and washed twice with HBSS containing 0.5% bovine serum albumin (HBSS/A). Monolayers were then exposed to 10^5 cpm of ^125I-labelled anti-P-selectin antibody (WAPS 12.2) in the presence of 200 μg/mL of either unlabelled blocking antibody (WAPS 12.2) or nonblocking anti-P-selectin IgG of the same isotype (anti-GMP-140, AC1.2 clone, Becton-Dickinson, San Jose, Calif.) (20,21). After binding for 1 hour at 37° C., monolayers were washed 4 times with HBSS/A, and bound antibody was eluted with 1% triton X-100 in PBS (200 μL/well) and counted. […]

acute ischemic stroke = conditions: cited from earlier work
[4] = CO-pretreated donor lungs vs untreated controls

C=CC1=C(C)C2=Cc3c(C=C)c(C)c4[n]3[Sn]([Cl])([Cl])[n]3c(c(C)c(CCC(=O)O)c3=CC3=NC(=C4)C(C)=C3CCC(=O)O)=CC1=N2 [tin protoporphyrin, Tin protoporphyrin IX dichloride]
infarct volume ([1]; heme oxygenase blockade): significantly larger infarct volumes
mortality ([1]; heme oxygenase blockade): increased mortality
neurological outcome ([1]; heme oxygenase blockade, vs untreated controls): worse neurological outcomes
local CO levels by direct measurement ([1]; osmotic pump from 24 h before surgery plus i.v. dose): reduced local CO levels

C=CC1=C(C)/C(=C/C2=NC(=C\c3[nH]c(/C=C4\NC(=O)C(C)=C4C=C)c(C)c3CCC(=O)O)/C(CCC(=O)O)=C2C)NC1=O [Biliverdin, biliverdin]
effect on stroke outcome (cerebral protection) ([1]; osmotic pump plus i.v. dose, total 0.061 mg): without effect

[C-]#[O+] [carbon monoxide]
level of protection ([2]; 0.01% dose): least protection
level of protection ([2]; 0.03% dose): intermediate level of protection
level of protection ([2]; 0.1% dose): best protection
survival of recipients ([2]; CO-pretreated donor lungs vs controls): Improved survival
arterial oxygenation of recipients [2, 4]: Improved arterial oxygenation
pulmonary arterial blood flow [2, 4]: Increased pulmonary arterial blood flow
pulmonary vascular resistance [2, 4]: reduced pulmonary vascular resistance
time dependence of protection ([2]; exposure 4, 8 or 12 hours before surgery): longer exposures appeared to provide the greatest protection
mortality at 24 hours ([1]; 0.1% CO inhaled for 12 hours before MCA occlusion): reduces mortality
cerebral infarct volume ([1]; 0.1% CO inhaled for 12 hours before MCA occlusion, 24 hours): reduces infarct volumes
inhaled CO dose providing optimal protection (infarct volume) ([1]; dose-response of inhaled CO): 0.1%

N=c1c[n+](N2CCOCC2)[n-]o1 [SIN-1, 3-morpholino sydnonimine]
vWF release [3]: 9.1±0.3 mU/mL
decrease of HL60 binding to hypoxic HUVECs vs controls (hypoxic HUVECs): 53%
PS expression in calcium-free medium (P-selectin; ECs in calcium-free medium): Neither SIN-1 nor cGMP could further reduce PS expression
decrease of surface PS expression vs controls (P-selectin; hypoxia 4 hours, SIN-1 0.1 mM, 8-Bromo-cGMP 10 nM): 40%

O=C(O)CN(CCOCCOCCN(CC(=O)O)CC(=O)O)CC(=O)O [EGTA, ethyleneglycol bis (aminoethylether) tetraacetic acid]
H-induced EC release of vWF (Human umbilical vein ECs; 0 mM Ca++ with 2 mM EGTA, 8 hrs): even more suppressive effect

CC(C)(Sc1cc(C(C)(C)C)c(O)c(C(C)(C)C)c1)Sc1cc(C(C)(C)C)c(O)c(C(C)(C)C)c1 [probucol]
vWF levels following reoxygenation of hypoxic ECs (Human umbilical vein ECs; probucol 50 μM): blunt the further increase in vWF levels
effect on H-mediated exocytosis of Weibel-Palade bodies (vWF release) (Human umbilical vein ECs; probucol 50 μM added at onset of H): no effect
vWF in culture supernatant (Human umbilical vein ECs; probucol 50 μM added at onset of H, 6 hours of H): 4.7±0.31×10^−3 U/ml

C=CC1=C(C)c2cc3[n-]c(cc4[n-]c(cc5nc(cc1n2)C(C)=C5C=C)c(C)c4CCC(=O)O)c(CCC(=O)O)c3C.[Zn+2] [zinc protoporphyrin IX]
infarct volume ([1]; heme oxygenase blockade): increase
mortality ([1]; heme oxygenase blockade): increase

streptokinase
rate of hemorrhagic transformation (acute ischemic stroke; given in the first several (<6) hours following stroke onset): up to 67%
6 month mortality (acute ischemic stroke; outside the therapeutic window): 73%
10 day mortality (acute ischemic stroke; outside the therapeutic window): 34.0%
